How the values were obtained:
Assay in all cases: relative viability (nuclei count vs DMSO), 5 days (fraction); higher = more cells survive
TPCA-1 + Bortezomib = compound: C1=CC(=CC=C1C2=CC(=C(S2)NC(=O)N)C(=O)N)F [TPCA-1] + CC(C)C[C@H](NC(=O)[C@H](Cc1ccccc1)NC(=O)c1cnccn1)B(O)O [Bortezomib] (partner 0.002 µM)
Summary of the method: (§1)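 Dosing by pin tool came one day after lung cancer cell lines were seeded in 1536-well plates, using either one drug or a fixed anchor-drug dose plus five library-drug doses (not always all listed) in √10 steps. After 5 days, nuclei were counted on 4× images. Relative viability is treated-well nuclei count divided by vehicle-well nuclei count, and values are medians of duplicate plates.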

TPCA-1 + Tozasertib = compound: C1=CC(=CC=C1C2=CC(=C(S2)NC(=O)N)C(=O)N)F [TPCA-1] + Cc1cc(Nc2cc(N3CCN(C)CC3)nc(Sc3ccc(NC(=O)C4CC4)cc3)n2)n[nH]1 [Tozasertib] (partner 0.1 µM)
Summary of the method: as §1

[1] = compound: C[C@]12O[C@H](C[C@]1(O)CO)n1c3ccccc3c3c4c(c5c6ccccc6n2c5c31)CNC4=O [Lestaurtinib] + CC1(C)CCC(c2ccc(Cl)cc2)=C(CN2CCN(c3ccc(C(=O)NS(=O)(=O)c4ccc(N[C@H](CCN5CCOCC5)CSc5ccccc5)c(S(=O)(=O)C(F)(F)F)c4)cc3)CC2)C1 [Navitoclax] (partner 0.5 µM)
Summary of the method: as §1

[2] = compound: C[C@]12O[C@H](C[C@]1(O)CO)n1c3ccccc3c3c4c(c5c6ccccc6n2c5c31)CNC4=O [Lestaurtinib] + Nc1nc2[nH]cc(CCc3ccc(C(=O)N[C@@H](CCC(=O)O)C(=O)O)cc3)c2c(=O)[nH]1 [Pemetrexed] (partner 0.2 µM)
Summary of the method: as §1

Row | Cell Line | relative viability (TPCA-1 + Bortezomib; first compound 0.04 µM) | relative viability (TPCA-1 + Bortezomib; first compound 0.1265 µM) | relative viability (TPCA-1 + Bortezomib; first compound 0.4 µM) | relative viability (TPCA-1 + Bortezomib; first compound 1.265 µM) | relative viability (TPCA-1 + Bortezomib; first compound 4 µM) | relative viability (TPCA-1 + Tozasertib; first compound 0.04 µM) | relative viability (TPCA-1 + Tozasertib; first compound 0.1265 µM) | relative viability (TPCA-1 + Tozasertib; first compound 0.4 µM) | relative viability (TPCA-1 + Tozasertib; first compound 1.265 µM) | relative viability (TPCA-1 + Tozasertib; first compound 4 µM) | relative viability ([1]; first compound 0.005 µM) | relative viability ([1]; first compound 0.01581 µM) | relative viability ([1]; first compound 0.05 µM) | relative viability ([1]; first compound 0.1581 µM) | relative viability ([1]; first compound 0.5 µM) | relative viability ([2]; first compound 0.005 µM) | relative viability ([2]; first compound 0.01581 µM) | relative viability ([2]; first compound 0.05 µM) | relative viability ([2]; first compound 0.1581 µM) | relative viability ([2]; first compound 0.5 µM)
1 | HOP-62 | 0.641 | 0.707 | 0.832 | 0.738 | 0.57 | 0.368 | 0.367 | 0.392 | 0.292 | 0.27 | 0.979 | 1.07 | 0.657 | 0.916 | 0.988 | 0.269 | 0.322 | 0.309 | 0.339 | 0.22
2 | NCI-H3122 | 1.09 | 0.983 | 1.08 | 1.01 | 0.975 | 0.465 | 0.37 | 0.463 | 0.329 | 0.268 | 1.13 | 1.1 | 1.12 | 1.12 | 0.536 | 0.227 | 0.205 | 0.193 | 0.216 | 0.187
3 | NCI-H647 | 1.26 | 0.809 | 0.954 | 0.751 | 0.418 | 0.262 | 0.198 | 0.348 | 0.129 | 0.164 | 1.08 | 0.945 | 0.572 | 0.465 | 0.116 | 0.187 | 0.162 | 0.183 | 0.119 | 0.064
4 | EKVX | 0.952 | 0.896 | 1.19 | 0.955 | 0.601 | 0.387 | 0.332 | 0.428 | 0.354 | 0.284 | 1.03 | 0.889 | 0.965 | 0.929 | 0.45 | 0.419 |  | 0.276 | 0.398 | 0.256
5 | NCI-H460 | 1.11 | 0.877 | 1.09 | 0.839 | 0.493 | 0.473 | 0.69 | 0.419 | 0.448 | 0.0397 | 1.37 | 1.01 | 0.694 | 0.894 | 0.544 | 0.0559 | 0.0645 | 0.0633 | 0.0509 | 0.0531
6 | LCLC-97TM1 | 0.654 | 0.654 | 0.608 | 0.475 | 0.0995 | 0.242 | 0.261 | 0.223 | 0.185 | 0.117 | 0.636 | 0.564 | 0.246 | 0.14 | 0.249 |  | 0.183 | 0.149 | 0.146 | 0.132
7 | COR-L23 | 1.27 | 0.854 | 0.983 | 0.937 | 0.751 | 0.155 | 0.168 | 0.18 | 0.134 | 0.129 | 1.14 | 1.12 |  | 0.62 | 0.184 | 0.209 | 0.214 | 0.195 | 0.194 | 0.202

From the supplement of paper PMC10307832
